Source: US9162992B2, “Compounds and compositions for treatment of breathing control disorders or diseases” (GALLEON PHARMACEUTICALS, INC., priority 2010, dated 2015)
Structures can show the parent of a compound that is named as a salt.

System: spontaneously breathing rats
Assay: Minute ventilation (MV) and cardiovascular parameters in naive rats
Type: in vivo, rat
Set-up: unit not given here
Method: All surgical procedures were performed under anesthesia induced by 2% isoflurane in compressed medical grade air. With rats in supine position, the right femoral vein was catheterized using polyethylene tubing (PE-50). This catheter was used for fluid and drug administration. Simultaneously, the right femoral artery was also catheterized for monitoring blood pressure and heart rate. In order to measure the respiratory parameters in spontaneously breathing rats, trachea was intubated using 13 gauge tracheal tube (2.5 mm ID, Instech Solomon, Pa.).
After establishing a stable base-line at 1.5% isoflurane, compounds (typically at a dose of 1 mpk) were administered IV, and ventilatory parameters were generated from spontaneously breathing rats, along with cardiovascular output (mean arterial pressure (MAP) and heart rate). Maximum peak minute ventilatory (MV) responses (MPR), along with changes in minute ventilation versus baseline (AMV) were obtained as shown in the tables below.

[1] = Table 8, 1 mpk, 20% HPβCD, pH 4
[2] = Table 8, 1 mpk, 20% HPβCD, pH 6
[3] = Table 8, 1 mpk, 20% HPβCD, pH 4.5
[4] = 1 mpk IV, 20% HPβCD, pH not given

Compound: CCCNc1nc(NCCC)c2cc[nH]c2n1
- MV MPR (1 mpk IV, 20% HPβCD, pH 4-6): 336
- MV ΔMV (1 mpk IV, 20% HPβCD, pH 4-6): 164

Compound: C=CCNc1nc(N2CCC(c3nc(NCCC)nc(NCCC)n3)CC2)c2ccn(C)c2n1 [6-(1-(2-(allylamino)-7-methyl-7H-pyrrolo[2,3-d]pyrimidin-4-yl)piperidin-4-yl)-N^2,N^4-di-n-propyl-1,3,5-triazine-2,4-diamine]
- MV MPR (1 mpk IV, 20% HPβCD, pH 5): 154
- MV ΔMV (1 mpk IV, 20% HPβCD, pH 5): 60

Compound: CCCNc1nc(N(C)N(C)C)c2ccn(C)c2n1 [7-methyl-N-n-propyl-4-(1,2,2-trimethylhydrazinyl)-7H-pyrrolo[2,3-d]pyrimidin-2-amine]
- MV MPR (1 mpk IV, 15/65/20, pH 5): 167
- MV ΔMV (1 mpk IV, 15/65/20, pH 5): 89
- MV MPR (1 mpk IV, 20% HPβCD, pH 4): 175
- MV ΔMV (1 mpk IV, 20% HPβCD, pH 4): 83

Compound: CC(C)CNc1nc(NCC(C)C)nc(N2C3CCC2CC(=O)C3)n1 [(1,5)-8-(4,6-bis(isobutylamino)-1,3,5-triazin-2-yl)-8-azabicyclo[3.2.1]octan-3-one]
- MV MPR (1 mpk IV, 20% HPβCD, pH 5): 237
- MV ΔMV (1 mpk IV, 20% HPβCD, pH 5): 137

Compound: CCCNc1nc(NCCC)nc(N2C3CCC2CC(=O)C3)n1 [(1,5)-8-(4,6-bis(n-propylamino)-1,3,5-triazin-2-yl)-8-azabicyclo[3.2.1]octan-3-one]
- MV MPR (1 mpk IV, 20% HPβCD, pH 5): 213
- MV ΔMV (1 mpk IV, 20% HPβCD, pH 5): 98

Compound: CCCNc1nc2c(c(N3CCC(O)CC3)n1)CCN2C [CLII, 2-(n-Propyl)amino-4-(4-hydroxypiperidin-1-yl)-7-methyl-pyrrolidino[2,3-d]pyrimidine]
- MV MPR (1 mpk IV, 20% HPβCD, pH 4): 49
- MV ΔMV (1 mpk IV, 20% HPβCD, pH 4): 0.33

Compound: CCCNc1nc2c(c(N3C4CCC3CC(O)C4)n1)CCN2C (stereo not shown) [CLV, 8-(7-methyl-2-(n-propylamino)-pyrrolidino[2,3-d]pyrimidin-4-yl)-8-azabicyclo[3.2.1]octan-3-ol]
- MV MPR (1 mpk IV, 20% HPβCD, pH 4): 170
- MV ΔMV (1 mpk IV, 20% HPβCD, pH 4): 57

Compound: C=CCNc1nc(NOC)c2ccn(C)c2n1 [CLX, N-(2-(Propen-2-yl)amino-7-methyl-pyrrolo[2,3d]pyrimidin-4-yl)-O-methyl-hydroxylamine]
- MV MPR (1 mpk IV, 20% HPβCD, pH 5): 182
- MV ΔMV (1 mpk IV, 20% HPβCD, pH 5): 103

Compound: COCCCNc1nc(NCCCOC)nc(N(C)OC)n1 [CXIII]
- MV DMV [1]: 46
- MV MPR [1]: 167.1

Compound: CCCNc1nc(N(C)OC)c2cc[nH]c2n1 [CXLI, N-(2-Propylamino-7H-pyrrolo[2,3d]pyrimidin-4-yl)-N,O-dimethyl-hydroxylamine]
- MV MPR (1 mpk IV, 20% HPβCD, pH 4-6): 264
- MV ΔMV (1 mpk IV, 20% HPβCD, pH 4-6): 163

Compound: CCCNc1nc(NCCC)c2c(n1)NCC2 [CXLIX, 2,4-Bis-(n-propyl)amino-7H-pyrrolidino[2,3-d]pyrimidine]
- MV MPR (1 mpk IV, 20% HPβCD, pH 4): 175
- MV ΔMV (1 mpk IV, 20% HPβCD, pH 4): 93
- MV MPR (1 mpk IV, 20% HPβCD, pH 6): 263
- MV ΔMV (1 mpk IV, 20% HPβCD, pH 6): 167
- MV DMV [1]: 93
- MV MPR [1]: 175
- MV DMV [2]: 167
- MV MPR [2]: 263

Compound: CON(C)c1nc2nc(n1)NCCOCCOCCOCCN2 [CXVII, N-(5,8,11-Trioxa-2,14,16,18,19-pentaazabicyclo[13.3.1]nonadeca-1(18),15 (19),16(17)-trien-17-yl)-N,O-dimethylhydroxylamine]
- MV DMV [3]: 15
- MV MPR [3]: 143.8

Compound: CON(C)c1nc(NCC2CCOCC2)nc(NCC2CCOCC2)n1 [CXV]
- MV DMV (Table 8, 1 mpk, 15/65/20, pH 4): 33.8
- MV MPR (Table 8, 1 mpk, 15/65/20, pH 4): 155.7

Compound: CCCNc1nc(NC(C)C)c2c(n1)N(C)CC2 [CXXVI]
- MV MPR (1 mpk IV, 20% HPβCD, pH 5): 327
- MV ΔMV (1 mpk IV, 20% HPβCD, pH 5): 224

Compound: CCCNc1nc(NC)c2c(n1)N(C)CC2 [CXXXI, 2-(n-Propyl)amino-4-methylamino-7-methyl-pyrrolidino[2,3-d]pyrimidine]
- MV MPR (1 mpk IV, 20% HPβCD, pH 4): 204
- MV ΔMV (1 mpk IV, 20% HPβCD, pH 4): 130

Compound: CCCNc1nc(NC(C)C)c2c(n1)N(C(C)C)CC2 [CXXXVI, 2-(n-Propyl)amino-4-(i-propyl)amino-7-i-propyl-pyrrolidino[2,3-d]pyrimidine]
- MV MPR (1 mpk IV, 20% HPβCD, pH 4): 238
- MV ΔMV (1 mpk IV, 20% HPβCD, pH 4): 143

Compound: CCCNc1cc(N(C)OC)nc(NCCC)n1 [CXX]
- MV MPR (1 mpk IV, 20% HPβCD, pH 4-6): 355
- MV ΔMV (1 mpk IV, 20% HPβCD, pH 4-6): 243
- MV DMV [3]: 243
- MV MPR [3]: 355

Compound: CCCNc1nc(NCCC)nc(N(C)OCc2ccccc2)n1 [LIII, O-Benzyl-N-(4,6-bis-n-propylamino-[1,3,5]triazin-2-yl)-N-methyl-hydroxylamine]
- MV MPR (1 mpk IV, 20% HPβCD, pH 4-6): 288
- MV ΔMV (1 mpk IV, 20% HPβCD, pH 4-6): 179

Compound: CCCNc1nc(NCCC)nc(N(C)OC(C)C)n1 [LXIV, N-(4,6-Bis-n-propylamino-[1,3,5]triazin-2-yl)-O-isopropyl-N-methyl-hydroxylamine]
- MV MPR [4]: 271
- MV ΔMV [4]: 209

Compound: CCCNc1nc(NCCC)nc(N(OCc2ccccc2)C(C)C)n1 [LXXII, 6-((Benzyloxy)(isopropyl)amino)-N^2,N^4-dipropyl-1,3,5-triazine-2,4-diamine]
- MV DMV [1]: 82
- MV MPR [1]: 176

Compound: CCCNc1nc(NCCC)nc(N(CC)OC(C)C)n1 [LXXVI, N-(4,6-Bis-n-propylamino-[1,3,5]triazin-2-yl)-N-ethyl-O-isopropyl-hydroxylamine]
- MV MPR (1 mpk IV, 20% HPβCD, pH 4): 308
- MV ΔMV (1 mpk IV, 20% HPβCD, pH 4): 191
- MV DMV [1]: 191
- MV MPR [1]: 308

Compound: CCCNc1nc(NCCC)nc(N(C)OCC(C)C)n1 [LXXXII, N-(4,6-Bis-n-propylamino-[1,3,5]triazin-2-yl)-O-isobutyl-N-methyl-hydroxylamine]
- MV MPR (1 mpk IV, 20% HPβCD, pH 4): 248
- MV ΔMV (1 mpk IV, 20% HPβCD, pH 4): 133
- MV DMV [1]: 133
- MV MPR [1]: 248

Compound: CCCNc1nc(NCCC)nc(N(C)OCc2cccs2)n1 [LXXXIV, 6-(Methyl(thiophen-2-ylmethoxy)amino)-N^2,N^4-di-n-propyl-1,3,5-triazine-2,4-diamine]
- MV MPR (1 mpk IV, 20% HPβCD, pH 4): 213
- MV ΔMV (1 mpk IV, 20% HPβCD, pH 4): 110
- MV DMV [1]: 110
- MV MPR [1]: 213

Compound: CCCNc1nc(NCC)nc(NOC)n1 [N^2-ethyl-6-(methoxyamino)-N^4-n-propyl-1,3,5-triazine-2,4-diamine]
- MV MPR (1 mpk IV, 20% HPβCD, pH 4-6): 208
- MV ΔMV (1 mpk IV, 20% HPβCD, pH 4-6): 117

Compound: CCCNc1nc(NC(C)C)c2ccn(C(C)C)c2n1 [N^4,7-diisopropyl-N^2-n-propyl-7H-pyrrolo[2,3-d]pyrimidine-2,4-diamine]
- MV MPR (1 mpk IV, 20% HPβCD, pH 6): 250
- MV ΔMV (1 mpk IV, 20% HPβCD, pH 6): 155

Compound: CCCNc1nc(NC(C)C)c2ccn(C)c2n1 [N^4-isopropyl-7-methyl-N^2-n-propyl-7H-pyrrolo[2,3-d]pyrimidine-2,4-diamine]
- MV MPR (1 mpk IV, 20% HPβCD, pH 5): 402
- MV ΔMV (1 mpk IV, 20% HPβCD, pH 5): 320

Compound: CCCNc1nc(NC(C)C)c2cc[nH]c2n1 [N^4-isopropyl-N^2-n-propyl-7H-pyrrolo[2,3-d]pyrimidine-2,4-diamine]
- MV MPR (1 mpk IV, 20% HPβCD, pH 4): 259
- MV ΔMV (1 mpk IV, 20% HPβCD, pH 4): 172

Compound: CCCNc1nc(NCCC)nc(N(C)OCC2CC2)n1 [XCI, N-(4,6-Bis-n-propylamino-[1,3,5]triazin-2-yl)-O-cyclopropylmethyl-N-methyl-hydroxylamine]
- MV MPR (1 mpk IV, 20% HPβCD, pH 4): 261
- MV ΔMV (1 mpk IV, 20% HPβCD, pH 4): 152
- MV DMV [1]: 152
- MV MPR [1]: 261

Compound: CCCNc1nc(NCCC)nc(N(C)NC)n1 [XLIX, N-(4,6-Bis-n-propylamino-[1,3,5]triazin-2-yl)-N,N′-dimethyl-hydrazine]
- MV MPR (1 mpk IV, 20% HPβCD, pH 5): 338
- MV ΔMV (1 mpk IV, 20% HPβCD, pH 5): 216

Compound: CCCNc1nc(N)nc(N(C)OC)n1 [XLVII, 6-(Methoxy(methyl)amino)-N2-propyl-1,3,5-triazine-2,4-diamine]
- MV MPR (1 mpk IV, 20% HPβCD, pH 5): 150.73
- MV ΔMV (1 mpk IV, 20% HPβCD, pH 5): 61.48

Compound: CCCNc1nc(NCCC)nc(N(C)O)n1 [XLVIII, N-(4,6-Bis-n-propylamino-[1,3,5]triazin-2-yl)-N-methyl-hydroxylamine]
- MV MPR (1 mpk IV, 15/65/20, pH 5): 114
- MV ΔMV (1 mpk IV, 15/65/20, pH 5): 30.13

Compound: CNc1nc(NC)nc(N(C)OC)n1 [XX, N-(4,6-Bis-methylamino-[1,3,5]triazin-2-yl)-N,O-dimethyl-hydroxylamine hydrochloride]
- MV MPR (1 mpk IV, 20% HPβCD, pH 4-6): 213
- MV ΔMV (1 mpk IV, 20% HPβCD, pH 4-6): 60
